Data reported in patent publication US20150031102A1, “METHODS AND COMPOSITIONS FOR ENHANCED PRODUCTION OF BUTANOL BY CLOSTRIDIA” (Butrolix LLC, priority 2012, published 2015).

System: Clostridium acetobutylicum strain ATCC 824
Experiment: Sequential batch transfer in 24-well culture plates (butanol, residual glucose, butanol yield and productivity)
Format: cell-based
Conditions: for Residual glucose concentration: initial glucose 60 g/L
Protocol: Each well contained 1.5 mL of growth medium. Peptide was added to each well at the indicated concentration (0, 25, 50, and 100 nM). Every 24 hours fresh medium and peptide treatment were added to a new column of wells then 1.5 μL of the previous day culture was transferred to the new well. Wells were harvested for glucose and butanol analysis after 96 hours of growth. Transfers 1, 4, 7, 10, 13, 16, […].
Briefly, Clostridium spores were germinated in a suitable growth medium for 18-24 hours then […] was transferred to 1.5 mL of fresh medium in each of four wells on a 24-well culture plate. Three of the wells had been treated with 25 nM, 50 nM and 100 nM of peptide, respectively while the fourth well was untreated. Thereafter, every 24 hours […] of each subculture was transferred to 1.5 mL of fresh medium that contained the same peptide treatment or no treatment. Transfers of successive subcultures were done for 24 days, and each subculture was grown for 96 hours before being harvested. Culture supernatants were recovered following centrifugation and were analyzed for butanol and residual glucose concentrations. Determination of optimum peptide treatment levels was based on a graphical comparison of the concentration of butanol in each of the four culture wells for sequential transfers 1, 4, 7, 10, 13, 16, 19, 22 and 24.
Clostridium acetobutylicum strain ATCC 824 was used in all experiments and the growth medium used for sequential batch transfer, time course, and continuous culture experiments contained yeast extract, casamino acids, L-cysteine, L-asparagine, phosphate buffer, trace minerals, and 6% glucose. What are believed to be quorum-sensing peptides that were used in the experiments were chemically synthesized peptides SEQ ID NO: 143 (amino acid sequence: SYPGWSW) and SEQ ID NO: 144 (amino acid sequence: ILILISG). Routine growth of the bacteria as well as the sequential batch and time course experiments were conducted in a Form a Scientific Model 1029 anaerobic gas chamber at 32° C. Continuous cultures were performed at 32° C. using duplicate New Brunswick Scientific BioFlo 3000 apparati with a dilution rate of 0.01 volume per hour, 75 rpm agitation, and nitrogen gas sparging. Optical density of culture samples was measured at 600 nm in a Beckman DU 600 series spectrophotometer and glucose was analyzed using a YSI Model 2700 Select Biochemistry Analyzer with internal glucose calibration. Butanol concentrations were determined by measuring experimental and standard samples using a Varian Saturn 3 Gas Chromatograph/Mass Spectrometer and calculating butanol concentrations using standard curves.
(§1) Sequential batch transfer experiments were carried out in 24-well culture plates that contained 1.5 mL of medium per well. Peptide was added to each well at the indicated concentrations of 0 nM (control), 25 nM, 50 nM, or 100 nM. Every 24 hours, fresh medium and peptide treatments were added to a new column of wells. Then, 1.5 uL of the previous day culture was transferred to the new well. Wells were harvested for glucose and butanol analysis after 96 hours of growth; transfers 1, 4, 7, 10, 13, 16, 19, 22, and 24 were analyzed. Two representative experiments are shown in Tables 30 and 31 and FIGS. 14 and 15.
as §1, with “32” for “30”, “33” for “31”, “16” for “14”, “17.” for “15.”

[1] = 50 nM peptide, transfer 19, after 96 hours of culture, Expt. 1
[2] = 50 nM peptide, transfer 22, after 96 hours of culture, Expt. 1
[3] = 50 nM peptide, transfer 24, after 96 hours of culture, Expt. 1
[4] = 100 nM peptide, transfer 1, after 96 hours of culture, Expt. 1
[5] = 100 nM peptide, transfer 4, after 96 hours of culture, Expt. 1
[6] = 100 nM peptide, transfer 7, after 96 hours of culture, Expt. 1
[7] = 100 nM peptide, transfer 10, after 96 hours of culture, Expt. 1
[8] = 100 nM peptide, transfer 13, after 96 hours of culture, Expt. 1
[9] = 100 nM peptide, transfer 16, after 96 hours of culture, Expt. 1
[10] = 100 nM peptide, transfer 19, after 96 hours of culture, Expt. 1
[11] = 100 nM peptide, transfer 22, after 96 hours of culture, Expt. 1
[12] = 100 nM peptide, transfer 24, after 96 hours of culture, Expt. 1
[13] = BP1106213 first experiment, 25 nM, transfer 10

Question: How did the Butanol concentration [1] turn out when “ILILISG (Derived from Clostridium acetobutylicum SEQ ID NO: 110) [peptide SEQ ID NO: 144]” was run?
Answer: 8.40 g/L

Question: And the Butanol productivity [1]?
Answer: 0.09 g butanol/L-h

Question: What about the Butanol yield [1] of the same substance?
Answer: 0.14 g butanol/g/glucose

Question: And the Butanol concentration (50 nM peptide, transfer 19, after 96 hours of culture, Expt. 2 (repeat), Table 58)?
Answer: 4.66 g/L

Question: And the Residual glucose concentration [1]?
Answer: 0.0 g/L

Question: And the Residual glucose concentration (50 nM peptide, transfer 19, after 96 hours of culture, Expt. 2 (repeat), Table 45)?
Answer: 49.2 g/L

Question: What about the Butanol concentration [2] of the same substance?
Answer: 14.14 g/L

Question: What about the Butanol productivity [2] of the same substance?
Answer: 0.15 g butanol/L-h

Question: What about the Butanol yield [2] of the same substance?
Answer: 0.23 g butanol/g/glucose

Question: And the Butanol concentration (50 nM peptide, transfer 22, after 96 hours of culture, Expt. 2 (repeat), Table 58)?
Answer: 4.22 g/L

Question: What about the Residual glucose concentration [2] of the same substance?
Answer: 12.6 g/L

Question: What about the Residual glucose concentration (50 nM peptide, transfer 22, after 96 hours of culture, Expt. 2 (repeat), Table 45) of the same substance?
Answer: 40.2 g/L

Question: And the Butanol concentration [3]?
Answer: 6.90 g/L

Question: And the Butanol productivity [3]?
Answer: 0.07 g butanol/L-h

Question: What about the Butanol yield [3] of the same substance?
Answer: 0.11 g butanol/g/glucose

Question: And the Butanol concentration (50 nM peptide, transfer 24, after 96 hours of culture, Expt. 2 (repeat), Table 58)?
Answer: 1.87 g/L

Question: And the Residual glucose concentration [3]?
Answer: 43.2 g/L

Question: What about the Residual glucose concentration (50 nM peptide, transfer 24, after 96 hours of culture, Expt. 2 (repeat), Table 45) of the same substance?
Answer: 0.0 g/L

Question: And the Butanol concentration [4]?
Answer: 1.78 g/L

Question: And the Butanol productivity [4]?
Answer: 0.02 g butanol/L-h

Question: What about the Butanol yield [4] of the same substance?
Answer: 0.03 g butanol/g/glucose

Question: And the Butanol concentration (100 nM peptide, transfer 1, after 96 hours of culture, Expt. 2 (repeat), Table 58)?
Answer: 1.19 g/L

Question: What about the Residual glucose concentration [4] of the same substance?
Answer: 48.5 g/L

Question: What about the Residual glucose concentration (100 nM peptide, transfer 1, after 96 hours of culture, Expt. 2 (repeat), Table 45) of the same substance?
Answer: 55.8 g/L

Question: What about the Butanol concentration [5] of the same substance?
Answer: 7.17 g/L

Question: And the Butanol productivity [5]?
Answer: 0.07 g butanol/L-h

Question: And the Butanol yield [5]?
Answer: 0.12 g butanol/g/glucose

Question: What about the Butanol concentration (100 nM peptide, transfer 4, after 96 hours of culture, Expt. 2 (repeat), Table 58) of the same substance?
Answer: 2.12 g/L

Question: And the Residual glucose concentration [5]?
Answer: 0.0 g/L

Question: And the Residual glucose concentration (100 nM peptide, transfer 4, after 96 hours of culture, Expt. 2 (repeat), Table 45)?
Answer: 49.9 g/L

Question: What about the Butanol concentration [6] of the same substance?
Answer: 5.62 g/L

Question: What about the Butanol productivity [6] of the same substance?
Answer: 0.06 g butanol/L-h

Question: And the Butanol yield [6]?
Answer: 0.09 g butanol/g/glucose

Question: And the Butanol concentration (100 nM peptide, transfer 7, after 96 hours of culture, Expt. 2 (repeat), Table 58)?
Answer: 2.11 g/L

Question: What about the Residual glucose concentration [6] of the same substance?
Answer: 0.0 g/L

Question: And the Residual glucose concentration (100 nM peptide, transfer 7, after 96 hours of culture, Expt. 2 (repeat), Table 45)?
Answer: 49.4 g/L

Question: What about the Butanol concentration [7] of the same substance?
Answer: 7.91 g/L

Question: What about the Butanol productivity [7] of the same substance?
Answer: 0.08 g butanol/L-h

Question: And the Butanol yield [7]?
Answer: 0.13 g butanol/g/glucose

Question: What about the Butanol concentration (100 nM peptide, transfer 10, after 96 hours of culture, Expt. 2 (repeat), Table 58) of the same substance?
Answer: 2.07 g/L

Question: And the Residual glucose concentration [7]?
Answer: 0.1 g/L

Question: What about the Residual glucose concentration (100 nM peptide, transfer 10, after 96 hours of culture, Expt. 2 (repeat), Table 45) of the same substance?
Answer: 51.2 g/L

Question: And the Butanol concentration [8]?
Answer: 6.37 g/L

Question: What about the Butanol productivity [8] of the same substance?
Answer: 0.07 g butanol/L-h

Question: And the Butanol yield [8]?
Answer: 0.11 g butanol/g/glucose

Question: What about the Butanol concentration (100 nM peptide, transfer 13, after 96 hours of culture, Expt. 2 (repeat), Table 58) of the same substance?
Answer: 1.54 g/L

Question: What about the Residual glucose concentration [8] of the same substance?
Answer: 0.1 g/L

Question: What about the Residual glucose concentration (100 nM peptide, transfer 13, after 96 hours of culture, Expt. 2 (repeat), Table 45) of the same substance?
Answer: 49.7 g/L

Question: What about the Butanol concentration [9] of the same substance?
Answer: 7.11 g/L

Question: And the Butanol productivity [9]?
Answer: 0.07 g butanol/L-h

Question: What about the Butanol yield [9] of the same substance?
Answer: 0.12 g butanol/g/glucose

Question: And the Butanol concentration (100 nM peptide, transfer 16, after 96 hours of culture, Expt. 2 (repeat), Table 58)?
Answer: 5.68 g/L

Question: And the Residual glucose concentration [9]?
Answer: 0.1 g/L

Question: What about the Residual glucose concentration (100 nM peptide, transfer 16, after 96 hours of culture, Expt. 2 (repeat), Table 45) of the same substance?
Answer: 0.0 g/L

Question: And the Butanol concentration [10]?
Answer: 5.55 g/L

Question: What about the Butanol productivity [10] of the same substance?
Answer: 0.06 g butanol/L-h

Question: What about the Butanol yield [10] of the same substance?
Answer: 0.09 g butanol/g/glucose

Question: What about the Butanol concentration (100 nM peptide, transfer 19, after 96 hours of culture, Expt. 2 (repeat), Table 58) of the same substance?
Answer: 2.61 g/L

Question: What about the Residual glucose concentration [10] of the same substance?
Answer: 0.0 g/L

Question: And the Residual glucose concentration (100 nM peptide, transfer 19, after 96 hours of culture, Expt. 2 (repeat), Table 45)?
Answer: 0.0 g/L

Question: What about the Butanol concentration [11] of the same substance?
Answer: 13.86 g/L

Question: What about the Butanol productivity [11] of the same substance?
Answer: 0.14 g butanol/L-h

Question: And the Butanol yield [11]?
Answer: 0.23 g butanol/g/glucose

Question: And the Butanol concentration (100 nM peptide, transfer 22, after 96 hours of culture, Expt. 2 (repeat), Table 58)?
Answer: 3.41 g/L

Question: And the Residual glucose concentration [11]?
Answer: 0.6 g/L

Question: What about the Residual glucose concentration (100 nM peptide, transfer 22, after 96 hours of culture, Expt. 2 (repeat), Table 45) of the same substance?
Answer: 0.1 g/L

Question: And the Butanol concentration [12]?
Answer: 7.20 g/L

Question: And the Butanol productivity [12]?
Answer: 0.07 g butanol/L-h

Question: What about the Butanol yield [12] of the same substance?
Answer: 0.12 g butanol/g/glucose

Question: What about the Butanol concentration (100 nM peptide, transfer 24, after 96 hours of culture, Expt. 2 (repeat), Table 58) of the same substance?
Answer: 3.29 g/L

Question: And the Residual glucose concentration [12]?
Answer: 0.1 g/L

Question: What about the Residual glucose concentration (100 nM peptide, transfer 24, after 96 hours of culture, Expt. 2 (repeat), Table 45) of the same substance?
Answer: 0.1 g/L

Question: What about the “Increase in butanol yield” value (BP1106213, batch cultures (summary of findings)) of the same substance?
Answer: more than 50%

Question: What about the “Transfers over which butanol production was enhanced” value (BP1106213, sequential batch cultures (summary of findings)) of the same substance?
Answer: transfer 4 through transfer 16

Question: And the Butanol productivity [13]?
Answer: 0.12 g butanol/1-hour

Question: And the Butanol yield [13]?
Answer: 0.20 g butanol/g glucose

Question: What about the “Butanol yield and productivity greater than untreated control” value [13] of the same substance?
Answer: more than 50%

Question: And the “Effect on butanol production versus untreated control” value (BP1106213 first experiment, 100 nM)?
Answer: generally resulted in decreased butanol production, or no difference from the untreated control

Question: What about the Glucose consumption (BP1106213 first experiment, all treated and untreated cultures, transfer 4 through transfer 19) of the same substance?
Answer: ~100%

Question: What about the “Effect on butanol production versus untreated control” value (BP1106213 repeated (second) experiment, on the whole) of the same substance?
Answer: inhibit butanol production

Question: What about the “Increase in butanol over untreated control” value (SEQ ID NO: 144 first experiment, 25 nM, transfer 4) of the same substance?
Answer: 31%

Question: And the “Increase in butanol over untreated control” value (SEQ ID NO: 144 first experiment, 25 nM, transfer 10)?
Answer: 57%

Question: And the “Increase in butanol over untreated control” value (SEQ ID NO: 144 first experiment, 25 nM, transfer 16)?
Answer: 21%

Question: And the “Increase in butanol over untreated control” value (SEQ ID NO: 144 first experiment, 50 nM, transfer 4)?
Answer: 25%

Question: What about the “Increase in butanol over untreated control” value (SEQ ID NO: 144 first experiment, 50 nM, transfer 10) of the same substance?
Answer: 46%

Question: What about the “Increase in butanol over untreated control” value (SEQ ID NO: 144 first experiment, 50 nM, transfer 16) of the same substance?
Answer: 35%

Question: And the “Increase in butanol over untreated control” value (SEQ ID NO: 144 second experiment, 25 nM, transfer 13)?
Answer: 283%

Question: And the “Increase in butanol over untreated control” value (SEQ ID NO: 144 second experiment, 25 nM, transfer 16)?
Answer: 10%

Question: And the “Increase in butanol over untreated control” value (SEQ ID NO: 144 second experiment, 50 nM, transfer 13)?
Answer: 85%

Question: What about the “Effect on differentiation and butanol production” value (some sequential cultures) of the same substance?
Answer: inducer of differentiation and butanol production
